In PubChem BioAssay AID602354 (The Scripps Research Institute Molecular Screening Center, 2012) one finds IC50 data, which are given here for two molecules.

The target in assay [1] is Diacylglycerol lipase-beta (Mus musculus) (UniProt Q91WC9). Kind of assay: in situ DAGLb and ABHD6 inhibitor potency – cell-based, gel-based competitive ABPP, fluorescence, dose response, late-stage follow-up (AID 602354). The note with it: mouse cells in situ, DAGLb.
The target of assay [2] is Monoacylglycerol lipase ABHD6 (Mus musculus) (UniProt Q8R2Y0). The description is as above. As to conditions: mouse cells in situ.
Sequence of Monoacylglycerol lipase ABHD6 (Mus musculus) (Q8R2Y0 whole entry, looked up): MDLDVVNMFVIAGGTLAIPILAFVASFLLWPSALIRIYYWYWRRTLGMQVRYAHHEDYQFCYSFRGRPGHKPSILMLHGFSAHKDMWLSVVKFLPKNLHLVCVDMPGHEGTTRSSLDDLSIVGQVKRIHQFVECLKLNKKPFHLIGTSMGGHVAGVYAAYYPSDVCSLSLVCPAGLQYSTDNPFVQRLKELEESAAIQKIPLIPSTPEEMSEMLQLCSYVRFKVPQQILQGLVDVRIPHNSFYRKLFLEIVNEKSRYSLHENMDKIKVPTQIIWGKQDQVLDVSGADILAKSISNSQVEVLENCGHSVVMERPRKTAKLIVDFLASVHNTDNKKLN

Sequence of Diacylglycerol lipase-beta (Mus musculus) (Q91WC9 whole entry, looked up): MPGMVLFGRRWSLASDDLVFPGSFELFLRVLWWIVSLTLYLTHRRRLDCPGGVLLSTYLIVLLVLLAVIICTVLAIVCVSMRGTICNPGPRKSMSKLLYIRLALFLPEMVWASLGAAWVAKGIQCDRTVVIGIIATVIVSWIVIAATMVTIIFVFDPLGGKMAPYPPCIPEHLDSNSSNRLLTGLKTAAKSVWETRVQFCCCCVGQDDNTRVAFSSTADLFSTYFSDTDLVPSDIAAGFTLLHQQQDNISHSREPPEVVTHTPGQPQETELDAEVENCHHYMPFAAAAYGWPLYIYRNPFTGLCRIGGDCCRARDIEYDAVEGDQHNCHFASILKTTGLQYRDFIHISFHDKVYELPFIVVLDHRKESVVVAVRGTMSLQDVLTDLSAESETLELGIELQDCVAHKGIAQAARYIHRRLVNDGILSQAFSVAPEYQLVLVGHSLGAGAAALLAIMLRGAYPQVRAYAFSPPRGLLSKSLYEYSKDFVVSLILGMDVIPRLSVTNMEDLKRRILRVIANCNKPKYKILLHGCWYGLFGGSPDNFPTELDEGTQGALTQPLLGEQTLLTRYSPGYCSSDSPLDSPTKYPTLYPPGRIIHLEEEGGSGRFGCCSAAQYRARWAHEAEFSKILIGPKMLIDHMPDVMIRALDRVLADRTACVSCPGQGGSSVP

Usually IC50 stands for the concentration at which inhibition is half-maximal. On to `COc1ccccc1-c1ccc(-c2cn(C(=O)N3CCCCC3Cc3ccccc3)nn2)cc1` (centres undefined), for which the IC50 in assay [1] is 12 nM; in assay [2], 0.48 nM.

`O=C(N1CCCCC1Cc1ccccc1)n1cc(-c2ccc(-c3ccccc3)cc2)nn1` (centres undefined): the IC50 in assay [1] is 16 nM; in assay [2] it was 0.46 nM.
